{"source": "paper PMC10609143", "about": "“Inhibitory Mechanisms of Lekethromycin in Dog Liver Cytochrome P450 Enzymes Based on UPLC-MS/MS Cocktail Method” (Molecules, 2023)", "molecules": {"B1": {"name": "CYP1A2 (Canis lupus familiaris) (protein)", "chain": "MALSQMATGLLLASTIFCLILWVVKAWQPRLPKGLKSPPGPWGWPLLGNVLTLGKSPHLALSRLSQRYGDVLQIRIGSTPVLVLSGLDTIRQALVRQGDDFKGRPDLYSLSLITDSQSMSFSPDSGPVWAAGRRLAQNALNTFSIASDPASSCSCYLEEHVSKEAEALLSRLQEQMAEVGRFDPYNQVLLSVANVIGAMCFGHHFSQRSEEMLPLLMSSSDFVETVSSGNPLDFFPILQYMPNSALQRFKNFNQTFVQSLQKIVQEHYQDFDERSVQDITGALLKHNEKSSRASDGHIPQEKIVNLINDIFGAGFDTVTTAISWSLMYLVANPEIQRQIQKELDTVIGRARQPRLSDRPQLPLMEAFILEIFRHTSFVPFTIPHSTTKDTTLKGFYIPKECCVFINQWQVNHDQQVWGDPFAFRPERFLTADGTTINKTLSEKVMLFGMGKRRCIGEVLAKWEIFLFLAILLQRLEFSVPAGVKVDLTPIYGLTMKHTRCEHVQARPRFSIK"}, "B2": {"name": "CYP2D6 (Canis lupus familiaris) (protein)", "chain": "MGLLTGDTLGPLAVAVAIFLLLVDLMHRRRRWATRYPPGPTPVPMVGNLLQMDFQEPICYFSQLQGRFGNVFSLELAWTPVVVLNGLEAVREALVHRSEDTADRPPMPIYDHLGLGPESQGLFLARYGRAWREQRRFSLSTLRNFGLGRKSLEQWVTEEASCLCAAFAEQAGRPFGPGALLNKAVSNVISSLTYGRRFEYDDPRLLQLLELTQQALKQDSGFLREALNSIPVLLHIPGLASKVFSAQKAIITLTNEMIQEHRKTRDPTQPPRHLIDAFVDEIEKAKGNPKTSFNEENLCMVTSDLFIAGMVSTSITLTWALLLMILHPDVQRRVQQEIDEVIGREQLPEMGDQTRMPFTVAVIHEVQRFGDIVPLGVPHMTSRDTEVQGFLIPKGTTLITNLSSVLKDEKVWKKPFRFYPEHFLDAQGHFVKHEAFMPFSAGRRVCLGEPLARMELFLFFTCLLQRFSFSVPAGQPRPSDHGVFTFLKVPAPFQLCVEPR"}, "B3": {"name": "CYP2B6 (Canis lupus familiaris) (protein)", "chain": "MELSVLLLLALLTGLLLLMARGHPKAYGHLPPGPRPLPILGNFLQMDRKGLLKSFLRLQEKYGDVFTVYLGPRRTVMLCGIDAIREALVDNAEAFSGRGKIAVVEPVFQGYGVVFANGERWKTLRRFSLATMRDFGMGKRSVEERIQEEAQCLVEELRKTEGVLQDPTFFFHSMTANIICSIVFGKRFGYKDPEFLRLMNLFYVSFALISSFSSQMFELFHSFLKYFPGTHRQVYNNLQEIKAFIARMVEKHRETLDPSAPRDFIDAYLIRMDKEKAEPSSEFHHRNLIDTALSLFFAGTETTSTTLRYGFLLMLKYPHIAERIYKEIDQVIGPHRLPSLDDRAKMPYTDAVIHEIQRFGDLLPIGVPHMVTKDICFRGYIIPKGTEVFPILHSALNDPHYFEKPDVFNPDHFLDANGALKKNEAFIPFSIGKRICLGEGIARMELFLFFTTILQNFSVASPMAPEDIDLTPQEIGVGKLPPVYQISFLSRGGC", "notes": "from tissue; host or cells: dog liver microsomes (DLM)"}}, "key": {"CYP1A2": {"test_system": "CYP1A2", "parameters": "method as in PMID 12433797", "details": "in vitro drug metabolism studies; cited from earlier work"}, "CYP2D6": {"test_system": "CYP2D6", "details": "in vitro drug metabolism studies; cited from earlier work"}, "CYP2A6 [1]": {"test_system": "CYP2A6", "parameters": "method as in PMID 11307970", "details": "dog liver microsomes, literature; cited from earlier work"}, "CYP2A6 [2]": {"test_system": "CYP2A6", "assay": "Enzyme kinetic study of probe substrate in dog liver microsomes", "format": "in vitro ADME", "procedure": "(§4) The CYP450 enzymatic activities were characterized by their probe substrate reactions. […] NADPH was added to initiate the reaction after a 5 min preincubation period at 37 °C in a thermos shaker. Of note, the volume of the final organic solvent in the incubation system should be below <1% (v/v) [21]. All experiments were performed in triplicate."}, "CYP3A4 [3]": {"test_system": "CYP3A4", "details": "dog liver microsomes, literature; cited from earlier work"}, "CYP3A4 [4]": {"test_system": "CYP3A4", "details": "mini-pig; cited from earlier work"}, "[5]": {"assay": "Enzyme kinetic study of probe substrate in dog liver microsomes", "format": "in vitro ADME", "details": "pH 7.4, probe testosterone (6β-hydroxylation), 15 min, 0.2 mg/mL, n = 3, read-out: Km (Michaelis–Menten constant)", "experimental": "(§1) The CYP450 enzymatic activities were characterized by their probe substrate reactions. Incubation mixtures were prepared in a total volume of 200 μL, which consisted of PBS (pH = 7.4), NADPH, probe substrates, and various concentrations of tested compounds. NADPH was added to initiate the reaction after a 5 min preincubation period at 37 °C in a thermos shaker. Of note, the volume of the final organic solvent in the incubation system should be below <1% (v/v). All experiments were performed in triplicate.\n(§2) The Vmax and Km were calculated using GraphPad Prism v.8.0.2 (GraphPad software Inc., San Diego, CA, USA) via the Michaelis–Menten kinetic model. In addition, incubation times of 0–60 min were examined for mixed probe substrates. Various DLM protein concentrations (0.05–1 mg/mL) in the incubation mixture were carried out.\n(§3) Then, 400 μL of cool ACN containing the 20 μL internal standard was added to terminate the reaction. Samples were vortexed for 2 min and centrifuged at 14,000 rpm for 10 min (4 °C). Next, the supernatant was steamed under nitrogen (40 °C) until dry. Then, it was dissolved with 200 µL of ACN: H2O = 80:20 (v/v). Finally, after filtering with a 0.22 μm membrane, an aliquot of 5 µL was injected into the UPLC-MS/MS for analysis."}, "CYP3A4 [6]": {"test_system": "CYP3A4", "assay": "Enzyme kinetic study of probe substrate in dog liver microsomes", "format": "in vitro ADME", "details": "testosterone 6β-hydroxylation, n = 3", "experimental": "as §1, §2, §3"}, "CYP3A4 [7]": {"test_system": "CYP3A4", "details": "rat; cited from earlier work"}, "[8]": {"substrate": "CCOc1ccc(NC(C)=O)cc1", "assay": "cells, lysate or membranes named", "details": "other: phenacetin O-deethylation, dog liver microsomes, 15 min, 0.2 mg/mL, n = 3; pH 7.4"}, "[9]": {"substrate": "COc1ccc2c(c1)[C@]13CCCC[C@@H]1[C@H](C2)N(C)CC3", "assay": "cells, lysate or membranes named", "details": "other: dextromethorphan O-demethylation, dog liver microsomes, 15 min, 0.2 mg/mL, n = 3; pH 7.4", "procedure": "as §4"}, "[10]": {"substrate": "CC(NC(C)(C)C)C(=O)c1cccc(Cl)c1", "assay": "Enzyme kinetic study of probe substrate in dog liver microsomes", "format": "in vitro ADME", "details": "other: bupropion hydroxylation, 15 min, 0.2 mg/mL, n = 3, pH 7.4", "procedure": "as §4"}}, "note": "Like-named read-outs stand apart in the source and are kept apart here."}
{"molecule": "CCOc1ccc(NC(C)=O)cc1", "note": "[PH, phenacetin]", "values": [{"measurement": "Km", "setting": "CYP1A2", "result": "10 to 50", "unit": "µM"}]}
{"molecule": "COc1ccc2c(c1)[C@]13CCCC[C@@H]1[C@H](C2)N(C)CC3", "note": "[DEX, dextromethorphan]", "values": [{"measurement": "Km", "setting": "CYP2D6", "result": "2 to 10", "unit": "µM"}]}
{"molecule": "O=c1ccc2ccccc2o1", "note": "[CAN, coumarin]", "values": [{"measurement": "Km", "setting": "CYP2A6 [1]", "result": "2 to 4.3", "unit": "µM"}, {"measurement": "Vmax", "setting": "CYP2A6 [1]", "result": "1488–1656 pmol/min/mg/microsomal protein"}, {"measurement": "Vmax (maximum rate of an enzyme-catalyzed reaction)", "setting": "CYP2A6 [2]; coumarin hydroxylation, n = 3", "result": 0.034, "unit": "nmol/min/mg protein"}, {"measurement": "Km at 15 min", "setting": "CYP2A6 [2]; pH 7.4, probe coumarin (hydroxylation), 15 min, 0.2 mg/mL, n = 3, read-out: Km (Michaelis–Menten constant)", "result": 410, "unit": "nM"}]}
{"molecule": "C[C@]12CC[C@H]3[C@@H](CCC4=CC(=O)CC[C@@]43C)[C@@H]1CC[C@@H]2O", "note": "[TS, testosterone]", "values": [{"measurement": "Km", "setting": "CYP3A4 [3]", "result": 192, "unit": "µM"}, {"measurement": "Vmax", "setting": "CYP3A4 [3]", "result": "68–180 pmol/min/mg/microsomal protein"}, {"measurement": "Km", "setting": "CYP3A4 [4]", "result": 79, "unit": "µM"}, {"measurement": "Km at 15 min", "setting": "[5]", "result": 85.2, "unit": "µM"}, {"measurement": "Vmax (maximum rate of an enzyme-catalyzed reaction)", "setting": "CYP3A4 [6]", "result": 1.49, "unit": "nmol/min/mg protein"}, {"measurement": "Km", "setting": "CYP3A4 [7]", "result": 84, "unit": "µM"}]}
{"molecule": "B1", "values": [{"measurement": "Km", "setting": "[8]", "result": 5.39, "unit": "µM"}, {"measurement": "Vmax", "setting": "[8]", "result": 0.00022, "unit": "µmol/min/mg"}]}
{"molecule": "B2", "values": [{"measurement": "Km", "setting": "[9]", "result": 6.33, "unit": "µM"}, {"measurement": "Vmax", "setting": "[9]", "result": 0.00616, "unit": "µmol/min/mg"}]}
{"molecule": "B3", "values": [{"measurement": "Km", "setting": "[10]", "result": 9.15, "unit": "µM"}, {"measurement": "Vmax", "setting": "[10]", "result": 0.00143, "unit": "µmol/min/mg"}]}
